Assay results published in patent US9492471B2, “Methods of treating a disease or disorder associated with Bruton'S Tyrosine Kinase” (Celgene Avilomics Research, Inc., priority 2013, dated 2016).

How the values were obtained:
patients with CLL = test: Compound 1 besylate monotherapy in CLL patients; type: in vivo, human
Environmental stability = type: physicochemical
[1] = monotherapy, as of Sep. 11, 2012

Structure (SMILES)	maximum tolerated dose (MTD) (patients with CLL; single agent, up to 750 mg PO QD)	patients with CLL with stable disease continuing on treatment (patients with CLL; [1])	patients with early increases in absolute lymphocyte counts (ALC) (patients with CLL; [1])	patients with reductions in lymph node size (patients with CLL; [1])	environmental instabilities (heat, acid, base) (Environmental stability)
C=CC(=O)Nc1cccc(Nc2nc(Nc3ccc(OCCOC)cc3)ncc2F)c1 [Compound 1, N-(3-(5-fluoro-2-(4-(2-methoxyethoxy)phenylamino)pyrimidin-4-ylamino)phenyl)acrylamide]	has not yet been reached	–	–	–	–
C=CC(=O)Nc1cccc(Nc2nc(Nc3ccc(OCCOC)cc3)ncc2F)c1.O=S(=O)(O)c1ccccc1 [N-(3-(5-fluoro-2-(4-(2-methoxyethoxy)phenylamino)pyrimidin-4-ylamino)phenyl)acrylamide benzenesulfonic acid salt]	–	35 out of 43	28 of 33	15 of 23	no environmental instabilities
